Test results as given in patent US11427548B2 (Arvinas Operations, Inc., priority 2015, dated 2022).
Read-outs that look alike come from different tables or passages of the source.

Legend:
Androgen Receptor [1] = molecular target: T1, Androgen Receptor (Homo sapiens, UniProt P10275+P40337, T878A); experiment: Androgen Receptor ELISA assay (PathScan AR ELISA) in LNCaP cells: AR degradation, Dmax and DC50; format: cell-based; details: for DC50: concentration that caused 50% Androgen Receptor degradation
T1 construct: Compounds have been evaluated in this assay in LNCaP and/or VCaP cells utilizing similar protocols; endogenous in cells; host or cells: LNCaP cells
T1 sequence (P10275 whole entry T878A): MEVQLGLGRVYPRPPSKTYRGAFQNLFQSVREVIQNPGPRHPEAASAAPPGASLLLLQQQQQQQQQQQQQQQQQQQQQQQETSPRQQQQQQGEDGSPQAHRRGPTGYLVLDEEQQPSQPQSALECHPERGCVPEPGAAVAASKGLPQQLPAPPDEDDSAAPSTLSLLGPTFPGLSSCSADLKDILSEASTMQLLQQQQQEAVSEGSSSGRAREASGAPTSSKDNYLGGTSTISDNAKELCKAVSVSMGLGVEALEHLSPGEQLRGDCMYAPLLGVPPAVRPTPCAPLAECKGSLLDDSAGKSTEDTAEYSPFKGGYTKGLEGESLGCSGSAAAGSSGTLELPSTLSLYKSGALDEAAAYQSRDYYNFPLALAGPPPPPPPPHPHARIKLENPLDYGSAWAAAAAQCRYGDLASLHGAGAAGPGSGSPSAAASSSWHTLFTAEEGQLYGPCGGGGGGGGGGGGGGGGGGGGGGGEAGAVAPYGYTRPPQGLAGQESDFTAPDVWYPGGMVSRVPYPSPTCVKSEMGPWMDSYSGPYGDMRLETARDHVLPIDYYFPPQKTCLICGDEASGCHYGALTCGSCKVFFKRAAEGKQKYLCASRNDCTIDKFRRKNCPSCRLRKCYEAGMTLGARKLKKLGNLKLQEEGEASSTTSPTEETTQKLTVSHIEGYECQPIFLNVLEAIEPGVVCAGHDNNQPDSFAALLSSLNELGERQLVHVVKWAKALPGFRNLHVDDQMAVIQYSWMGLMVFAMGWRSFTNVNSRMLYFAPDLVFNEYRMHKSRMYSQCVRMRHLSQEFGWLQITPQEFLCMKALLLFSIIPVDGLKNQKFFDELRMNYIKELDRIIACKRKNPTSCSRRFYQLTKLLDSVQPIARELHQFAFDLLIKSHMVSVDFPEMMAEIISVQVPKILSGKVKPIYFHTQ
T1 sequence (P40337 whole entry): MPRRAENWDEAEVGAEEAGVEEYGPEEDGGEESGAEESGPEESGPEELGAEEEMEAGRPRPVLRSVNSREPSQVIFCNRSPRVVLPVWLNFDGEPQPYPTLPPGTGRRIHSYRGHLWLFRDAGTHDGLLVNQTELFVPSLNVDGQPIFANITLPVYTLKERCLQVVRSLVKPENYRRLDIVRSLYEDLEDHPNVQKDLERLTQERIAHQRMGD
T1 sequence (Q15369 whole entry partner): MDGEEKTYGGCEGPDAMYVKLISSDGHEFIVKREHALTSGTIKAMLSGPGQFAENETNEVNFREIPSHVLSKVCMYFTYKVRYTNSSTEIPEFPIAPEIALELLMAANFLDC
T1 sequence (Q15370 whole entry partner): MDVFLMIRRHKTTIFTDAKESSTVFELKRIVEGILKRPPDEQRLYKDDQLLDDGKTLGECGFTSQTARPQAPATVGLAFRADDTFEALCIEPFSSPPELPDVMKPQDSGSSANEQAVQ

Androgen Receptor [2] = molecular target: T2, Androgen Receptor (Homo sapiens, UniProt P10275); experiment: Androgen Receptor ELISA assay (PathScan AR ELISA) in VCaP cells: AR degradation, Dmax and DC50; format: cell-based
T2 construct: endogenous in cells; host or cells: VCaP cells
T2 sequence (P10275 1-920): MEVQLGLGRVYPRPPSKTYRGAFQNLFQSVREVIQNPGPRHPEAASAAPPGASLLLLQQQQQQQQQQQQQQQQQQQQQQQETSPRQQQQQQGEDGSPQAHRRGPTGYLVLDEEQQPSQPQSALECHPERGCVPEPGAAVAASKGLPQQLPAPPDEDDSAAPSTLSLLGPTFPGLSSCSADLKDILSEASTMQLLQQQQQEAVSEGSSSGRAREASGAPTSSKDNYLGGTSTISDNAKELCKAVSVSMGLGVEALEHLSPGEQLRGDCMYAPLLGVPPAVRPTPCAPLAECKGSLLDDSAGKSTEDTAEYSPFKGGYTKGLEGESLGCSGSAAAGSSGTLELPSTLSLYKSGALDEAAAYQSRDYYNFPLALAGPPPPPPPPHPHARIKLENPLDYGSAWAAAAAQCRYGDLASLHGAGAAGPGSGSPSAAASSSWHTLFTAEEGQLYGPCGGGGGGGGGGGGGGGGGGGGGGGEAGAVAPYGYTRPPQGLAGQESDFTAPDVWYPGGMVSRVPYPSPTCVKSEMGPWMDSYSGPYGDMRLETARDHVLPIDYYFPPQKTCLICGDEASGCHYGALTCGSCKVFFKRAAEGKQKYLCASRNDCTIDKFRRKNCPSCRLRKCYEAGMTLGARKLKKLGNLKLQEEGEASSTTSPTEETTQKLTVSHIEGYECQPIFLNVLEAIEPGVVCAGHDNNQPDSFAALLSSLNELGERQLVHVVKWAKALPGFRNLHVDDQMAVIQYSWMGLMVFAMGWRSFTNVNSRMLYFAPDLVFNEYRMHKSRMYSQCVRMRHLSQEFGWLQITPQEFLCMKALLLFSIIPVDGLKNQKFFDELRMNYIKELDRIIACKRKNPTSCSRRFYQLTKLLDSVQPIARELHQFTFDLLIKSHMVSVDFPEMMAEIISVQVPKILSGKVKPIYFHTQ
In short: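 VCaP cells, 30,000/well, grown ≥3 days in phenol red-free RPMI with 5% charcoal-stripped FBS; compound added in 0.1% DMSO with 0.1 nM R1881, 7 half-log doses, 24 h. Lysate AR quantified by PathScan sandwich ELISA, HRP/TMB read at 450 nm, giving DC50 and Dmax.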

[3] = highest percentage of Androgen Receptor degradation observed
[4] = highest percentage of Androgen Receptor degradation
[5] = read-out: VCaP DC50; VCaP cells; concentration that caused 50% Androgen Receptor degradation

SMILES	DC50 (Androgen Receptor [1]) [µM]	LNCaP Dmax (%) (Androgen Receptor [1]; [3])	DC50 (Androgen Receptor [2]; concentration that caused 50% Androgen Receptor degradation, VCaP cells; read-out: VCaP DC50) [µM]	VCaP Dmax (%) (Androgen Receptor [2]; highest percentage of Androgen Receptor degradation observed, VCaP cells)	Dmax (Androgen Receptor [1]; [3]) [%]	Dmax (Androgen Receptor [2]; VCaP, read-out: VCaP Dmax (%)) [%]	DC50 (Androgen Receptor [2]; read-out: VCaP DC50; concentration that caused 50% Androgen Receptor degradation, VCaP cells) [µM]	Dmax (Androgen Receptor [1]; [4]) [%]	DC50 (Androgen Receptor [2]; [5]) [µM]
Cc1ncsc1-c1ccc([C@H](C)NC(=O)[C@@H]2C[C@@H](O)CN2C(=O)[C@@H](NC(=O)COCCOCCOc2ccc(-c3ccc(N4C(=S)N(c5ccc(C#N)c(C(F)(F)F)c5)C(=O)C4(C)C)cc3F)cc2)C(C)(C)C)cc1 [Example 79, (2S,4R)-l-[(2S)-2-[2-(2-{2-[4-(4-{3-[4-cyano-3-(trifluoromethyl)phenyl]-5,5-dimethyl-4-oxo-2-sulfanylideneimidazolidin-1-yl}-2-fluorophenyl)phenoxy]ethoxy}ethoxy)acelamido]-3,3-dimethylbutanoyl]-4-hydroxy-N-[(1S)-l-[4-(4-methyl-l,3-thiazol-5-yl)phenyl]ethyl]pyrrolidine-2-carboxamide]	< 0.05	++++ (71% ≤ Dmax)	< 0.05	+++ (51% ≤ Dmax ≤ 70%)	–	–	–	–	–
Cc1ncsc1-c1ccc(CNC(=O)[C@@H]2C[C@@H](O)CN2C(=O)[C@@H](NC(=O)COCCCCOCCN2CCC(c3ccc(N4C(=S)N(c5ccc(C#N)c(C(F)(F)F)c5)C(=O)C4(C)C)cc3)CC2)C(C)(C)C)cc1 [Example 81, (2S,4R)-1-((S)-2-(2-(4-(2-(4-(4-(3-(4-cyano-3-(trifluoromethyl)phenyl)-5,5-dimethyl-4-oxo-2-thioxoimidazolidin-1-yl)phenyl)piperidin-1-yl)ethoxy)butoxy)acetamido)-3,3-dimethylbutanoyl)-4-hydroxy-N-(4-(4-methylthiazol-5-yl)benzyl)pyrrolidine-2-carboxamide]	> 0.501	–	–	–	51 to 70	< 25	0.051 to 0.5	–	–
Cc1ncsc1-c1ccc(CNC(=O)[C@@H]2C[C@@H](O)CN2C(=O)[C@@H](NC(=O)COCCCOCCCOc2ccc(N3C(=S)N(c4ccc(C#N)c(C(F)(F)F)c4)C(=O)C3(C)C)cc2)C(C)(C)C)cc1 [Example 238]	0.051 to 0.5	–	–	–	–	< 25	–	51 to 70	–
Cc1ncsc1-c1ccc(CNC(=O)[C@@H]2C[C@H](O)CN2C(=O)[C@@H](NC(=O)COCCCOCCCCCOc2ccc(N3C(=S)N(c4ccc(C#N)c(C(F)(F)F)c4)C(=O)C3(C)C)cc2)C(C)(C)C)cc1 [Example 242]	> 0.501	–	–	–	–	26 to 50	–	26 to 50	> 0.501
Cc1ncsc1-c1ccc(CNC(=O)[C@@H]2C[C@@H](O)CN2C(=O)[C@@H](NC(=O)COCCOCCCCCOc2ccc(N3C(=S)N(c4ccc(C#N)c(C(F)(F)F)c4)C(=O)C3(C)C)cc2)C(C)(C)C)cc1 [Example 247]	< 0.05	–	–	–	–	> 71	–	> 71	< 0.05
Cc1ncsc1-c1ccc(CNC(=O)[C@@H]2C[C@@H](O)CN2C(=O)[C@@H](NC(=O)CCCOCCOc2ccc(-c3ccc(N4C(=S)N(c5ccc(C#N)c(C(F)(F)F)c5)C(=O)C4(C)C)cc3)cc2)C(C)(C)C)cc1 [Example 260]	0.051 to 0.5	–	–	–	–	26 to 50	–	> 71	< 0.05
Cc1ncsc1-c1ccc(CNC(=O)[C@@H]2C[C@@H](O)CN2C(=O)[C@@H](NC(=O)c2cccc(OCCCCOc3ccc(N4C(=S)N(c5ccc(C#N)c(C(F)(F)F)c5)C(=O)C4(C)C)cc3)c2)C(C)(C)C)cc1 [Example 278]	0.051 to 0.5	–	–	–	–	51 to 70	–	> 71	< 0.05
Cc1ncsc1-c1ccc(CNC(=O)[C@@H]2C[C@@H](O)CN2C(=O)[C@@H](NC(=O)COCCCOCCOc2cccc(-c3ccc(N4C(=S)N(c5ccc(C#N)c(C(F)(F)F)c5)C(=O)C4(C)C)cc3)c2)C(C)(C)C)cc1 [Example 288]	< 0.05	–	–	–	–	26 to 50	–	> 71	< 0.05
Cc1ncsc1-c1ccc(CNC(=O)[C@@H]2C[C@@H](O)CN2C(=O)[C@@H](NC(=O)CCc2ccc(OCCCOc3ccc(N4C(=S)N(c5ccc(C#N)c(C(F)(F)F)c5)C(=O)C4(C)C)cc3)cc2)C(C)(C)C)cc1 [Example 292]	0.051 to 0.5	–	–	–	–	26 to 50	–	51 to 70	0.051 to 0.5
Cc1ncsc1-c1ccc(CNC(=O)[C@@H]2C[C@@H](O)CN2C(=O)[C@@H](NC(=O)COCCCCOC2CCN(C(=O)c3ccc(N4C(=S)N(c5ccc(C#N)c(C(F)(F)F)c5)C(=O)C4(C)C)cc3)CC2)C(C)(C)C)cc1 [Example 293]	0.051 to 0.5	–	–	–	–	< 25	–	51 to 70	–
Cc1ncsc1-c1ccc(CNC(=O)[C@@H]2C[C@@H](O)CN2C(=O)[C@@H](NC(=O)COCCCCCOC2CCN(C(=O)c3ccc(N4C(=S)N(c5ccc(C#N)c(C(F)(F)F)c5)C(=O)C4(C)C)cc3)CC2)C(C)(C)C)cc1 [Example 294]	0.051 to 0.5	–	–	–	–	26 to 50	–	26 to 50	0.051 to 0.5
Cc1ncsc1-c1ccc(CNC(=O)[C@@H]2C[C@@H](O)CN2C(=O)[C@@H](NC(=O)COCCCCCOCCCOc2ccc(N3C(=S)N(c4ccc(C#N)c(C(F)(F)F)c4)C(=O)C3(C)C)cc2)C(C)(C)C)cc1 [Example 295]	< 0.05	–	–	–	–	26 to 50	–	> 71	< 0.05
Cc1ncsc1-c1ccc(CNC(=O)[C@@H]2C[C@@H](O)CN2C(=O)[C@@H](NC(=O)COCCOc2cccc(CCCOc3ccc(N4C(=S)N(c5ccc(C#N)c(C(F)(F)F)c5)C(=O)C4(C)C)cc3)c2)C(C)(C)C)cc1 [Example 296]	0.051 to 0.5	–	–	–	–	26 to 50	–	> 71	< 0.05
Cc1ncsc1-c1ccc(CNC(=O)[C@@H]2C[C@@H](O)CC2C(=O)[C@H](C(C)C)N2Cc3ccccc3C2=O)c(OCCOC2CCCC[C@@H]2OCCOc2ccc(N3C(=S)N(c4ccc(C#N)c(C(F)(F)F)c4)C(=O)C3(C)C)cc2)c1 (some centres unmarked) [Example 297]	> 0.501	–	–	–	–	26 to 50	–	26 to 50	–
Cc1ncsc1-c1ccc(CNC(=O)[C@@H]2C[C@@H](O)CN2C(=O)[C@@H](NC(=O)Cc2cccc(OCCCOCCOc3ccc(N4C(=S)N(c5ccc(C#N)c(C(F)(F)F)c5)C(=O)C4(C)C)cc3)c2)C(C)(C)C)cc1 [Example 298]	0.051 to 0.5	–	–	–	–	26 to 50	–	51 to 70	0.051 to 0.5
Cc1ncsc1-c1ccc(CNC(=O)[C@@H]2C[C@@H](O)CN2C(=O)[C@H](C(C)C)N2Cc3c(CCCOCCOc4ccc(N5C(=S)N(c6ccc(C#N)c(C(F)(F)F)c6)C(=O)C5(C)C)cc4)cccc3C2=O)cc1 [Example 299]	0.051 to 0.5	–	–	–	–	26 to 50	–	> 71	–
Cc1ncsc1-c1ccc(CNC(=O)[C@@H]2C[C@@H](O)CN2C(=O)[C@@H](NC(=O)CCCOCCOCCCOc2ccc(N3C(=S)N(c4ccc(C#N)c(C(F)(F)F)c4)C(=O)C3(C)C)cc2)C(C)(C)C)cc1 [Example 300]	< 0.05	–	–	–	–	51 to 70	–	51 to 70	< 0.05
Cc1ncsc1-c1ccc(CNC(=O)[C@@H]2C[C@@H](O)CN2C(=O)[C@@H](NC(=O)CCCOCCCOCCCOc2ccc(N3C(=S)N(c4ccc(C#N)c(C(F)(F)F)c4)C(=O)C3(C)C)cc2)C(C)(C)C)cc1 [Example 301]	< 0.05	–	–	–	–	51 to 70	–	51 to 70	–
Cc1ncsc1-c1ccc(CNC(=O)[C@@H]2C[C@@H](O)CN2C(=O)[C@@H](NC(=O)CCCOc2ccc(CCOc3ccc(N4C(=S)N(c5ccc(C#N)c(C(F)(F)F)c5)C(=O)C4(C)C)cc3)cc2)C(C)(C)C)cc1 [Example 302]	0.051 to 0.5	–	–	–	–	51 to 70	–	> 71	< 0.05
